Measured values as given in ChEMBL document CHEMBL1122879, “Racemic and optically active 1,3,3-trimethyl-4-phenyl-4-(propionyloxy)piperidine” (1985).

How the values were obtained:
Type in all cases: functional
[1] = species on record: Rattus norvegicus; assay: Effective dose for antinociceptive activity in rats
[2] = system: Mus musculus; assay: Effective dose for antinociceptive activity in mice hot plate test s.c.; conditions: sc
[3] = system: Rattus norvegicus; assay: Effective dose for antinociceptive activity in rat tail-withdrawal test i.v.

Row | SMILES | ED50 [1] | ED50 [2] | ED50 [3]
1 | CCC(=O)O[C@@]1(c2ccccc2)CCN(C)CC1(C)C | 0.5 mg/kg | – | –
2 | CCC(=O)OC1(c2ccccc2)CCN(C)CC1(C)C (racemic) | – | 0.61 mg/kg | 0.63 mg/kg
3 | CCOC(=O)C1(c2ccccc2)CCN(C)CC1 [MEPERIDINE] | – | 4.1 mg/kg | 6.15 mg/kg
